The source of these data is ChEMBL document CHEMBL1151623, “Flavonoids from Brickellia glutinosa” (J Nat Prod, 1984).

Assay [1] addresses Aldo-keto reductase family 1 member B1 (Homo sapiens) (UniProt P15121). Description: Inhibition of aldose reductase at 0.1 uM.
For assay [2] the target is unchanged. Description: Inhibition of aldose reductase at 1 uM.

As for `COc1cc2oc(-c3ccc(O)c(O)c3)c(OC)c(=O)c2c(O)c1O`, the inhibition amounted to 97% in assay [1] and 71% in assay [2].
Consider `C[C@@H]1O[C@@H](Oc2c(-c3ccc(O)c(O)c3)oc3cc(O)cc(O)c3c2=O)[C@H](O)[C@H](O)[C@H]1O`, for which the inhibition turned out to be 91% in assay [1] and 82% in assay [2].
Take `COc1cc2oc(-c3ccc(O)c(O)c3)c(OC)c(=O)c2c(O)c1OC`: the inhibition in assay [1] was found to be 88%; in assay [2], 63%.
Taken in the same sequence, the figures for `O=C1NC(=O)c2cccc3cccc1c23` were 92% and 44%.
Taken in the same sequence, the figures for `COc1cc2oc(-c3ccc(O)cc3)c(OC)c(=O)c2c(O)c1OC` were 64% and 21%.
`COc1ccc(-c2oc3cc(O[C@@H]4O[C@H](CO)[C@@H](O)[C@H](O)[C@H]4O)c(OC)c(O)c3c(=O)c2OC)cc1O`: the results for the inhibition in assay [1] and in assay [2] were 47% and 0%, respectively.
Taken in the same sequence, the figures for `COc1c(-c2ccc(O)c(O)c2)oc2cc(O)cc(O)c2c1=O` were 95% and 78%.

The inhibition is the share of the control response that was lost under treatment. Read a high inhibition as a response far below the control.
